From patent US20050143362A1 (priority 2003, published 2005)

Legend:
[1] = system: hypogonadism in the adult male; test: Illustrative examples: danazol capsules given to hypogonadal adult men; format: in vivo; conditions: after one month
Text: A person reports a lethargic and depressed mood. Blood tests show a hypogonadism in which total testosterone is borderline normal range but SHBG levels are higher than normal. Free testosterone levels are abnormally low and the patient is diagnosed as hypogonadal.
A person reports a general physical weakening and decreased libido. Blood tests show a high total testosterone level but SHBG levels are also in the very high range. Free testosterone levels are abnormally low and the patient is diagnosed as hypogonadal.

[2] = system: serum gonadotropins; conditions: Gelfand et al. 1976; cited from earlier work
[3] = target: T1, progesterone receptors (Homo sapiens, UniProt P06401); conditions: Zurlo et al. 1990; cited from earlier work
T1 sequence (P06401 1-933): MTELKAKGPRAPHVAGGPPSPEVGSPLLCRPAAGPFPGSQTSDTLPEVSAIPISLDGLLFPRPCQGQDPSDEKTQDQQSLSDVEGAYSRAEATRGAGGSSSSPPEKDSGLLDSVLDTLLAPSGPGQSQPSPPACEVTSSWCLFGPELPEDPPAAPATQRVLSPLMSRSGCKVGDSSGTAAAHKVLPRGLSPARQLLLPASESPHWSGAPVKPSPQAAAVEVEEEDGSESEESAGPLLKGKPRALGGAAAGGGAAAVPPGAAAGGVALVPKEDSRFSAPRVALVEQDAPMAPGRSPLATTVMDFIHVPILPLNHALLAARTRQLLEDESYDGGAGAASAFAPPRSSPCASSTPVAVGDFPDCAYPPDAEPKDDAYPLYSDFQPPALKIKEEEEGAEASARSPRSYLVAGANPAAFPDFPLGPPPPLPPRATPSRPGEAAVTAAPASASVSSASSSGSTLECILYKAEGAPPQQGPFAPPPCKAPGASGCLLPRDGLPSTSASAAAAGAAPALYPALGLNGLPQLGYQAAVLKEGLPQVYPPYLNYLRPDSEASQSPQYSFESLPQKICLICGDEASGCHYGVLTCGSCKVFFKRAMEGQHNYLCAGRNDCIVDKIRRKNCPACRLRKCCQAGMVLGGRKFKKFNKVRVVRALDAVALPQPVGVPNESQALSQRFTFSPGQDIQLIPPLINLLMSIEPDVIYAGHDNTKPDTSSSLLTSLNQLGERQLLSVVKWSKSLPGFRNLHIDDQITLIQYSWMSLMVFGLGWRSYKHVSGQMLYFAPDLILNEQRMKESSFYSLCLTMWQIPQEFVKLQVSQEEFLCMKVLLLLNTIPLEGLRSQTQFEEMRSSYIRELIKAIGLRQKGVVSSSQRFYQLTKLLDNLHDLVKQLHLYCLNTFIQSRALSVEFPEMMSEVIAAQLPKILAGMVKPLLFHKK

[4] = target: T2, sex hormone binding globulin (SHBG) (Homo sapiens, UniProt P04278); conditions: Pugeat et al. 1981; cited from earlier work
T2 sequence (P04278 30-402): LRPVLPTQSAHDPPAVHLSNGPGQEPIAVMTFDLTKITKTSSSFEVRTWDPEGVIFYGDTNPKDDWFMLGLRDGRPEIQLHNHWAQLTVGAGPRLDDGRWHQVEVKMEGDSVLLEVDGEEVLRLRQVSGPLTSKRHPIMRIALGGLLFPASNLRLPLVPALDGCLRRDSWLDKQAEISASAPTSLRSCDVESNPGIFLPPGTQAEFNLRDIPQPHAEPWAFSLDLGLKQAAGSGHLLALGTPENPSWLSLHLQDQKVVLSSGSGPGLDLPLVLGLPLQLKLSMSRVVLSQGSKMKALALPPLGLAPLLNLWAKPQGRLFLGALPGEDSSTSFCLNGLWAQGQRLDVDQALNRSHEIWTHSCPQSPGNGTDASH

[5] = cited from earlier work
[6] = Example 1: person, one 25 milligram capsule three times daily
[7] = Example 2: person, one 25 milligram capsule twice a day

## C#C[C@]1(O)CC[C@H]2[C@@H]3CCC4=Cc5oncc5C[C@]4(C)[C@H]3CC[C@@]21C [danazol, 17α-pregn-4-en-20-yno[2,3-d]isoxazol-17-ol]
[1]; [6]
  SHBG level (blood test): remained stable
  free testosterone (blood test): increased
  total testosterone level (blood test): remained stable
  vigor and mood reported by patient: greater vigor and an improved mood
[1]; [7]
  SHBG level (blood test): lower levels
  free testosterone (blood test): new higher level
  libido reported by patient: increased libido
[2]
  serum gonadotropins: dose-dependent reduction
[3]
  binding to progesterone receptors: competitive binding
[4]
  displacement of testosterone from SHBG: competitive displacer of testosterone
[5]; Gelfand et al. 1976
  androgenic potential: markedly attenuated
  myogenic (anabolic) activity: mildly myogenic
[5]; Potts et al. 1980
  androgen-like activity: weak
[5]; whole males, low dosages, Dmowski et al. 1971
  anabolic response: increased and stable, long term anabolic response
